Measured values reported in US4882349A, “Pyrrolacetic amides having antiinflammatory activity” (priority 1982, dated 1989).
Like-named read-outs stand apart in the source and are kept apart here.

Experiments:
solubility = type: physicochemical
[1] = tested on: brewers' yeast-induced hyperthermia; test: antipyretic activity, brewers' yeast-induced hyperthermia; type: in vivo, albino male Wistar rats
Method: The animals were caged under the same conditions as those described in the preceding tests. Five hours following […], determined by a rectal probe connected to a YSI thermometer (73 ATP model, Yellow Springs Instrument Company) were selected for the experiment. The animals were then randomized into groups of 10 and the compounds under examination and the vehicle were administered via the oral and parenteral routes testing each dose in two groups. Body temperature was determined at one, two and three hours after administration of the substances. […]

gastric lesions = type: in vivo, male Wistar rats; details: 4 consecutive days; for gastric damage index: I=mean no. of lesions+mean of severity+% incidence/10; for mean severity: scale 0 (no lesion) to 5 (perforations)
Method: Male Wistar rats weighing 180 g were randomized into groups of 10. Three doses of each compound were administered. One group received the vehicle alone (10 ml/kg b.w.). Each dose was given orally for four days consecutively and the rats were sacrificed on the fifth day for necropsy. The ulcerogenic effect was evaluated by the following scale:
(1) each haemorrhagic point at least 1 mm in diameter was scored as 1 lesion,
(2) haemorrhagic points less than 1 mm in diameter were scored in the following manner:
(c) 20 to 29=three lesions
By means of this scale it was possible to obtain the gastric damage index:
I=mean no. of lesions+mean of severity+% incidence/10

in vivo [2] = details: mouse
[3] = tested on: phenyl-p-quinone-induced writhing (abdominal contractions); test: phenylquinone-induced writhing test, oral administration 1-24 h before phenyl-quinone (duration of analgesia); type: in vivo, male Wistar rats
Method: Male Wistar rats weighing 110±5 g were caged for 10 days at 22±1° C. and given a balanced diet with free access to water. Twenty-four hours before the experiment the animals were randomized into groups of 10 and fasted for 14 hours but with free access to water. Each dose was tested in 3 groups of rats. […] alone (0.5% carboxymethyl-cellulose in physiological saline) in the control animals, each rat was given 2 ml of a 5% absolute ethanol aqueous solution containing 0.36% of phenyl-p-quinone (Sigma Chemical Company) in order to provoke writhings. Fifteen minutes after administration of phenyl-p-quinone the number of contractions were counted for 20 minutes. The inhibiting effect of the compounds under examination on the abdominal contractions induced by phenyl-p-quinone was calculated by the following formula: % protection= [formula]

in vivo [4] = details: rat

## COc1ccccc1OC(=O)CNC(=O)Cc1ccc(C(=O)c2ccc(C)cc2)n1C [Compound 1-d, 1-methyl-5-p-toluoylpyrrole-2-acetamidoacetic acid guaiacyl ester]
solubility
  Solubility: soluble in the common organic solvents
[1]; 50 mg/Kg i.p., 1 h
  % Temperature decrease: 16.0%
[1]; 50 mg/Kg i.p., 2 h
  % Temperature decrease: 23.0%
[1]; 50 mg/Kg i.p., 3 h
  % Temperature decrease: 37.5%
[1]; 50 mg/Kg per os, 1 h
  % Temperature decrease: 14.0%
[1]; 50 mg/Kg per os, 2 h
  % Temperature decrease: 22.0%
[1]; 50 mg/Kg per os, 3 h
  % Temperature decrease: 31.6%
[1]; 75 mg/Kg i.p., 1 h
  % Temperature decrease: 22.1%
[1]; 75 mg/Kg i.p., 2 h
  % Temperature decrease: 33.4%
[1]; 75 mg/Kg i.p., 3 h
  % Temperature decrease: 39.8%
[1]; 75 mg/Kg per os, 1 h
  % Temperature decrease: 18.5%
[1]; 75 mg/Kg per os, 2 h
  % Temperature decrease: 23.4%
[1]; 75 mg/Kg per os, 3 h
  % Temperature decrease: 29.1%
[1]; 100 mg/Kg i.p., 1 h
  % Temperature decrease: 28.1%
[1]; 100 mg/Kg i.p., 2 h
  % Temperature decrease: 37.2%
[1]; 100 mg/Kg i.p., 3 h
  % Temperature decrease: 60.4%
[1]; 100 mg/Kg per os, 1 h
  % Temperature decrease: 22.0%
[1]; 100 mg/Kg per os, 2 h
  % Temperature decrease: 42.5%
[1]; 100 mg/Kg per os, 3 h
  % Temperature decrease: 59.0%
Gastric lesions; 50 mg/Kg orally
  % incidence/10 (head is drawing 38): 6
  mean no. of lesions: 1.5
  gastric damage index: 8.5
  mean severity: 1
Gastric lesions; 100 mg/Kg orally
  % incidence/10 (head is drawing 38): 9
  mean no. of lesions: 2
  gastric damage index: 12.5
  mean severity: 1.5
Gastric lesions; 200 mg/Kg orally
  % incidence/10 (head is drawing 38): 9
  mean no. of lesions: 2
  gastric damage index: 13
  mean severity: 2
In vivo [2]; ip
  LD50: 1370 mg/kg
In vivo [2]; po
  LD50: > 1500 mg/kg
[3]; 10 mg/Kg oral, 1 h before phenyl-quinone
  % Protection: 55.7%
[3]; 10 mg/Kg oral, 2 h before phenyl-quinone
  % Protection: 43.3%
[3]; 10 mg/Kg oral, 4 h before phenyl-quinone
  % Protection: 40.1%
[3]; 10 mg/Kg oral, 6 h before phenyl-quinone
  % Protection: 44.0%
[3]; 10 mg/Kg oral, 8 h before phenyl-quinone
  % Protection: 32.0%
[3]; 10 mg/Kg oral, 16 h before phenyl-quinone
  % Protection: 12.1%
[3]; 10 mg/Kg oral, 24 h before phenyl-quinone
  % Protection: 10.0%
[3]; 20 mg/Kg oral, 1 h before phenyl-quinone
  % Protection: 78.1%
[3]; 20 mg/Kg oral, 2 h before phenyl-quinone
  % Protection: 80.6%
[3]; 20 mg/Kg oral, 4 h before phenyl-quinone
  % Protection: 70.5%
[3]; 20 mg/Kg oral, 6 h before phenyl-quinone
  % Protection: 66.3%
[3]; 20 mg/Kg oral, 8 h before phenyl-quinone
  % Protection: 71.0%
[3]; 20 mg/Kg oral, 16 h before phenyl-quinone
  % Protection: 23.6%
[3]; 20 mg/Kg oral, 24 h before phenyl-quinone
  % Protection: 25.0%
[3]; 50 mg/Kg oral, 1 h before phenyl-quinone
  % Protection: 86.4%
[3]; 50 mg/Kg oral, 2 h before phenyl-quinone
  % Protection: 87.0%
[3]; 50 mg/Kg oral, 4 h before phenyl-quinone
  % Protection: 81.5%
[3]; 50 mg/Kg oral, 6 h before phenyl-quinone
  % Protection: 76.8%
[3]; 50 mg/Kg oral, 8 h before phenyl-quinone
  % Protection: 75.0%
[3]; 50 mg/Kg oral, 16 h before phenyl-quinone
  % Protection: 60.7%
[3]; 50 mg/Kg oral, 24 h before phenyl-quinone
  % Protection: 64.0%
In vivo [4]; ip
  LD50: 1100 mg/kg
In vivo [4]; po
  LD50: 1450 mg/kg
